In the first assay the test system is A-673 cells. Nature of the assay: Cell viability, crystal violet staining. Particulars: Homo sapiens, A673, cell viability, read-out: A-673 IC50 (nM), Cell viability. The format is cell-based. The method in brief: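 Readout is absorbance at 570 nm of crystal violet, taken up in 0.1 M sodium citrate in 50% ethanol after staining with 0.5% dye in 25% methanol. Plates held 5×10^3 cells per well, and compounds were added one day after seeding for 72 hours. Data are relative to vehicle, mean±SE.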
Regarding `Cc1nnnn1-c1ccc(-c2ccc(N(C)[C@@H]3C[C@H]4CC[C@@H](C3)N4)nn2)c(O)c1` [compound 233, 2-(6-(((1R,3s,5S)-8-azabicyclo[3.2.1]octan-3-yl)(methyl)amino)pyridazin-3-yl)-5-(5-methyl-1H-tetrazol-1-yl)phenol], the IC50 (commonly the concentration that gives 50% inhibition) is above 1000 nM.

For the compound `CN(c1ccc(-c2ccc(-n3cnnc3)cc2O)nn1)[C@@H]1C[C@H]2CC[C@@H](C1)N2` [compound 235, 2-(6-(((1R,3s,5S)-8-azabicyclo[3.2.1]octan-3-yl)(methyl)amino)pyridazin-3-yl)-5-(4H-1,2,4-triazol-4-yl)phenol], the 50% inhibitory concentration (IC50) was above 1000 nM.

Consider `Cc1ccc(-c2ccc(-c3ccc(N(C)[C@@H]4C[C@H]5CC[C@@H](C4)N5)nn3)c(O)c2)cn1` [compound 236, 2-(6-(((1R,3s,5S)-8-azabicyclo[3.2.1]octan-3-yl)(methyl)amino)pyridazin-3-yl)-5-(6-methylpyridin-3-yl)phenol], for which the half-maximal inhibitory concentration (IC50) is 101 to 250 nM.

With `Cc1ncc(-c2ccc(-c3ccc(N(C)[C@@H]4C[C@H]5CC[C@@H](C4)N5)nn3)c(O)c2)cn1` [compound 237, 2-(6-(((1R,3s,5S)-8-azabicyclo[3.2.1]octan-3-yl)(methyl)amino)pyridazin-3-yl)-5-(2-methylpyrimidin-5-yl)phenol], the IC50 is 501 to 1000 nM. As for `Cc1ncn(-c2ccc(-c3ccc(N(C)[C@@H]4C[C@H]5CC[C@@H](C4)N5)nn3)c(O)c2)n1` [compound 244, 2-(6-(((1R,3s,5S)-8-azabicyclo[3.2.1]octan-3-yl)(methyl)amino)pyridazin-3-yl)-5-(3-methyl-1H-1,2,4-triazol-1-yl)phenol], the IC50 fell in the range of 101 to 250 nM. With `Cc1nnc(-c2ccc(-c3ccc(O[C@@H]4C[C@H]5CC[C@@H](C4)N5)nn3)c(O)c2)o1` [compound 247, 2-(6-(((1R,3s,5S)-8-azabicyclo[3.2.1]octan-3-yl)oxy)pyridazin-3-yl)-5-(5-methyl-1,3,4-oxadiazol-2-yl)phenol], the IC50 was above 1000 nM. Still for that read-out and setting: in the case of `Oc1cc(-n2cccn2)ccc1-c1ccc(O[C@@H]2C[C@H]3CC[C@@H](C2)N3)nn1` [compound 248, 2-(6-(((1R,3s,5S)-8-azabicyclo[3.2.1]octan-3-yl)oxy)pyridazin-3-yl)-5-(1H-pyrazol-1-yl)phenol] it was 501 to 1000 nM; in that of `CN(c1ccc(-c2ccc(-c3ccn(C)c(=O)c3)cc2O)nn1)[C@H]1C[C@]2(C)CCC[C@](C)(C1)N2` [compound 259, 4-(4-(6-(((1R,3s,5S)-1,5-dimethyl-9-azabicyclo[3.3.1]nonan-3-yl)(methyl)amino)pyridazin-3-yl)-3-hydroxyphenyl)-1-methylpyridin-2(1H)-one], below 10 nM; in that of `CN(c1ccc(-c2ccc(-c3cnn(C)c(=O)c3)cc2O)nn1)[C@H]1C[C@]2(C)CCC[C@](C)(C1)N2` [compound 260, 5-(4-(6-(((1R,3s,5S)-1,5-dimethyl-9-azabicyclo[3.3.1]nonan-3-yl)(methyl)amino)pyridazin-3-yl)-3-hydroxyphenyl)-2-methylpyridazin-3(2H)-one], below 10 nM.

`CNC(=O)c1cc2cc(-c3ccc(N(C)[C@H]4C[C@]5(C)CCC[C@](C)(C4)N5)nn3)c(O)cc2o1` [compound 261, 5-(6-(((1R,3s,5S)-1,5-dimethyl-9-azabicyclo[3.3.1]nonan-3-yl)(methyl)amino)pyridazin-3-yl)-6-hydroxy-N-methylbenzofuran-2-carboxamide]: the IC50 was in the range of 10 to 100 nM. As to `C[C@]12CCC[C@](C)(C[C@@H](Oc3ccc(-c4ccc(-c5cn[nH]c5)cc4O)nn3)C1)N2` [compound 262, 2-(6-(((1R,3s,5S)-1,5-dimethyl-9-azabicyclo[3.3.1]nonan-3-yl)oxy)pyridazin-3-yl)-5-(1H-pyrazol-4-yl)phenol], the IC50 lay in the range of 101 to 250 nM.

Turning to `C[C@]12CCC[C@](C)(C[C@@H](Oc3ccc(-c4cc(F)c(-c5cn[nH]c5)cc4O)nn3)C1)N2` [compound 263, 2-(6-(((1R,3s,5S)-1,5-dimethyl-9-azabicyclo[3.3.1]nonan-3-yl)oxy)pyridazin-3-yl)-4-fluoro-5-(1H-pyrazol-4-yl)phenol], the IC50 is below 10 nM.

Consider `CN(c1ccc(-c2cc(F)c(-c3ccn(C)c(=O)c3)cc2O)nn1)[C@H]1C[C@]2(C)CCC[C@](C)(C1)N2` [compound 265, 4-(4-(6-(((1R,3s,5S)-1,5-dimethyl-9-azabicyclo[3.3.1]nonan-3-yl)(methyl)amino)pyridazin-3-yl)-2-fluoro-5-hydroxyphenyl)-1-methylpyridin-2(1H)-one], for which the IC50 is below 10 nM. As for `[2H]C([2H])([2H])Oc1cc(-c2ccc(-c3ccc(N(C)[C@H]4C[C@]5(C)CCC[C@](C)(C4)N5)nn3)c(O)c2)cnn1` [compound 268, 2-(6-(((1R,3s,5S)-1,5-dimethyl-9-azabicyclo[3.3.1]nonan-3-yl)(methyl)amino)pyridazin-3-yl)-5-(6-(methoxy-d3)pyridazin-4-yl)phenol], the IC50 is below 10 nM. On the same count and under the same terms, in the case of `[2H]C([2H])([2H])Oc1cc(-c2cc(O)c(-c3ccc(N(C)[C@H]4C[C@]5(C)CCC[C@](C)(C4)N5)nn3)cc2F)cnn1` [compound 269, 2-(6-(((1R,3s,5S)-1,5-dimethyl-9-azabicyclo[3.3.1]nonan-3-yl)(methyl)amino)pyridazin-3-yl)-4-fluoro-5-(6-(methoxy-d3)pyridazin-4-yl)phenol] it was below 10 nM.

Consider `CN(c1ccc(-c2cc(F)c(-c3cn[nH]c3)cc2O)nn1)[C@@H]1C[C@H]2CCC[C@@H](C1)N2` [compound 271, 2-(6-(((1R,3s,5S)-9-azabicyclo[3.3.1]nonan-3-yl)(methyl)amino)pyridazin-3-yl)-4-fluoro-5-(1H-pyrazol-4-yl)phenol], for which the IC50 was below 10 nM. On to `CN(c1ccc(-c2ccc(-n3ccnc3)cc2O)nn1)[C@@H]1C[C@H]2CCC[C@@H](C1)N2` [compound 272, 2-(6-(((1R,3s,5S)-9-azabicyclo[3.3.1]nonan-3-yl)(methyl)amino)pyridazin-3-yl)-5-(1H-imidazol-1-yl)phenol], for which the IC50 is 10 to 100 nM.

As for `Cc1ncc(-c2ccc(-c3ccc(N(C)[C@@H]4C[C@H]5CCC[C@@H](C4)N5)nn3)c(O)c2)o1` [compound 273, 2-(6-(((1R,3s,5S)-9-azabicyclo[3.3.1]nonan-3-yl)(methyl)amino)pyridazin-3-yl)-5-(2-methyloxazol-5-yl)phenol], the IC50 is below 10 nM. On the same count and under the same terms, then `Cc1ncc(-c2cc(O)c(-c3ccc(N(C)[C@@H]4C[C@H]5CCC[C@@H](C4)N5)nn3)cc2F)o1` [compound 274, 2-(6-(((1R,3s,5S)-9-azabicyclo[3.3.1]nonan-3-yl)(methyl)amino)pyridazin-3-yl)-4-fluoro-5-(2-methyloxazol-5-yl)phenol], with below 10 nM; and `CN(c1ccc(-c2ccc(-c3cnn(C)c(=O)c3)cc2O)nn1)[C@@H]1C[C@H]2CCC[C@@H](C1)N2` [compound 280, 5-(4-(6-(((1R,3s,5S)-9-azabicyclo[3.3.1]nonan-3-yl)(methyl)amino)pyridazin-3-yl)-3-hydroxyphenyl)-2-methylpyridazin-3(2H)-one], with 10 to 100 nM.

Regarding `CN(c1ccc(-c2ccc(-c3ccn(C)c(=O)c3)cc2O)nn1)[C@@H]1C[C@H]2CCC[C@@H](C1)N2` [compound 283, 4-(4-(6-(((1R,3s,5S)-9-azabicyclo[3.3.1]nonan-3-yl)(methyl)amino)pyridazin-3-yl)-3-hydroxyphenyl)-1-methylpyridin-2(1H)-one], the IC50 was below 10 nM. On to `CN(c1ccc(-c2cc(F)c(-c3cnn(C)c(=O)c3)cc2O)nn1)[C@@H]1C[C@H]2CCC[C@@H](C1)N2` [compound 286, 5-(4-(6-(((1R,3s,5S)-9-azabicyclo[3.3.1]nonan-3-yl)(methyl)amino)pyridazin-3-yl)-2-fluoro-5-hydroxyphenyl)-2-methylpyridazin-3(2H)-one], for which the IC50 is below 10 nM. Take `CN(c1ccc(-c2ccc(-c3cnn(C)c3)cc2O)nn1)[C@@H]1C[C@H]2CCC[C@@H](C1)N2` [compound 287, 2-(6-(((1R,3s,5S)-9-azabicyclo[3.3.1]nonan-3-yl)(methyl)amino)pyridazin-3-yl)-5-(1-methyl-1H-pyrazol-4-yl)phenol]: the IC50 was below 10 nM. As for `[2H]C([2H])([2H])n1cc(-c2ccc(-c3ccc(N(C)[C@@H]4C[C@H]5CCC[C@@H](C4)N5)nn3)c(O)c2)cn1` [compound 288, 2-(6-(((1R,3s,5S)-9-azabicyclo[3.3.1]nonan-3-yl)(methyl)amino)pyridazin-3-yl)-5-(1-(methyl-d3)-1H-pyrazol-4-yl)phenol], the IC50 fell in the range of 10 to 100 nM.

Consider `Cc1cc(-c2ccc(-c3ccc(N(C)[C@@H]4C[C@H]5CCC[C@@H](C4)N5)nn3)c(O)c2)cc(=O)n1C` [compound 290, 4-(4-(6-(((1R,3s,5S)-9-azabicyclo[3.3.1]nonan-3-yl)(methyl)amino)pyridazin-3-yl)-3-hydroxyphenyl)-1,6-dimethylpyridin-2(1H)-one], for which the IC50 is 251 to 500 nM.

Turning to `CN(c1ccc(-c2ccc(-c3ccn(CF)c(=O)c3)cc2O)nn1)[C@@H]1C[C@H]2CCC[C@@H](C1)N2` [compound 291, 4-(4-(6-(((1R,3s,5S)-9-azabicyclo[3.3.1]nonan-3-yl)(methyl)amino)pyridazin-3-yl)-3-hydroxyphenyl)-1-(fluoromethyl)pyridin-2(1H)-one], the IC50 is below 10 nM. For the compound `COc1cc(-c2ccc(-c3ccc(N(C)[C@@H]4C[C@H]5CCC[C@@H](C4)N5)nn3)c(O)c2)ccc1C` [compound 292, 4-(6-(((1R,3s,5S)-9-azabicyclo[3.3.1]nonan-3-yl)(methyl)amino)pyridazin-3-yl)-3′-methoxy-4′-methyl-[1,1′-biphenyl]-3-ol], the IC50 was above 1000 nM.

The assay is the same for the next values; noted with them: Homo sapiens, A673, read-out: A-673 cell viability (IC50).
In the case of `CN(c1ccc(-c2ccc(-c3ccn(C)c(=O)c3)cc2O)nn1)[C@H]1C[C@]2(C)CCC[C@](C)(C1)N2` [compound 259, 4-(4-(6-(((1R,3s,5S)-1,5-dimethyl-9-azabicyclo[3.3.1]nonan-3-yl)(methyl)amino)pyridazin-3-yl)-3-hydroxyphenyl)-1-methylpyridin-2(1H)-one], the IC50 was below 1 nM.

The same assay, now with this note: cell viability, read-out: A-673 IC50 (nM), Cell viability.
`Oc1cc(-c2cn[nH]c2)ccc1-c1ccc(O[C@@H]2C[C@H]3CCC[C@@H](C2)N3)nn1` [compound 276, 2-(6-(((1R,3s,5S)-9-azabicyclo[3.3.1]nonan-3-yl)oxy)pyridazin-3-yl)-5-(1H-pyrazol-4-yl)phenol]: the IC50 lay in the range of 101 to 250 nM.

These data come from patent US11008572B2, “Methods and compositions for modulating splicing” (SKYHAWK THERAPEUTICS, INC., priority 2017, dated 2021).
